Article PMC6882823, “Partitioning of amino acids and proteins into decanol using phase transfer agents towards understanding life in non-polar liquids” (Scientific Reports, 2019)

Assays:
[1] = set-up: method as in PMID 7108955; conditions: amino acid residue; positive scores = higher hydrophobicity; cited from earlier work
[2] = Water/decanol phase partitioning with or without phase transfer agents; type: physicochemical
Method: Biomolecules were dissolved in ultrapure water (Millipore EMD, USA), containing decylsulfate and/or DDAB when noted. […] Final concentrations of phase transfer agents (PTAs) and amino acids were generally 10 mM unless noted otherwise for specific experiments. Proteins were generally diluted until their 280 nm absorbance was less than or equal to 1 AU.
(§1) Equal volumes of water phase (containing the biomolecule and PTA, if added) and decanol were mixed, vortexed for 30 s, then centrifuged for 3 minutes with a mini centrifuge. These samples were prepared in triplicate. Both decanol and aqueous phase were analyzed for biomolecules. Phenylalanine and proteins were analyzed using UV-vis (Hewlett-Packard 8453).
(§2) HPLC was performed with Cosmosil HILiC column (2.5 µm particle size, 3 × 100 mm; Nacalai USA) at 30 °C with a 1.0 mL/min flow rate, and isocratic elution of 25% 20 mM ammonium acetate, pH 7.5 and 75% acetonitrile (Optima, LC-MS purity, Fisher Scientific). Injection volume was 10 µL. For mass spectra collection, HESI heater temp was 50 °C, with a 4.5 kV spray, and 250 °C capillary temperature in positive ion mode.

[3] = Potassium ion binding of valinomycin in the decanol phase; conditions: decanol phase after partitioning against 100 mM KCl
Method: Ultra-pure Millipore grade (18.2 MΩ) water, 100 mM KCl or 100 mM AuCl were tested as aqueous phases. In all samples all of the valinomycin was found in the decanol phase (see SI for additional details).
as §1, §2

N[C@@H](CCC(=O)O)C(=O)O [glutamic acid]
Hydrophathy (hydropathy score of residue type) [1]: −3.5

NCC(=O)O [glycine, Glycine]
Hydrophathy (hydropathy score of residue type) [1]: −0.4

N[C@@H](Cc1ccccc1)C(=O)O [phenylalanine, Phenylalanine]
Hydrophathy (hydropathy score of residue type) [1]: 2.8 | phenylalanine partitioning into decanol, 1:1 PTA to phenylalanine, pH 7 ([2]; water/decanol, 10 mM phenylalanine, 1:1 ratio of PTA (DS and DDAB 1:1), pH 7 zwitterionic, UV-vis, n = 3): 15% | phenylalanine entering the decanol phase, 1:10 PTA to phenylalanine ([2]; water/decanol, 10 mM phenylalanine, 1:10 ratio of PTA, all pHs (1.5 DS; 7.0 DS and DDAB; 10.0 DDAB), UV-vis, n = 3): about 10%

Tpol: Taq DNA polymerase, UniProt P19821
Tpol entering the decanol phase ([2]; water/decanol, no PTA or 5 mM of both DDAB and DS, UV-vis): About 10%

valinomycin [reference compound]
ability to bind potassium ions [3]: appeared to retain its biological ability to bind to potassium ions | valinomycin found in the decanol phase ([2]; water/decanol, without PTAs, aqueous phase ultra-pure water, 100 mM KCl or 100 mM AuCl, LC-MS and UV 210 nm, three independent partitionings): all

B1: Bacteriorhodopsin: a membrane protein, soluble only in amphiphilic systems (protein, UniProt P02945 14-262, looked up)
Bacteriorhodopsin: QAQITGRPEWIWLALGTALMGLGTLYFLVKGMGVSDPDAKKFYAITTLVPAIAFTMYLSMLLGYGLTMVPFGGEQNPIYWARYADWLFTTPLLLLDLALLVDADQGTILALVGADGIMIGTGLVGALTKVYSYRFVWWAISTAAMLYILYVLFFGFTSKAESMRPEVASTFKVLRNVTVVLWSAYPVVWLIGSEGAGIVPLNIETLLFMVLDVSAKVGFGLILLRSRAIFGEAEAPEPSAGDGAAATSD
behaviour of bacteriorhodopsin in partitioning experiments ([2]; water/decanol with DS and DDAB added, visual): aggregated at the interface between the water and oil phase | solubility in water and decanol phases ([2]; without PTAs, appearing as crystals): insoluble in both the water and decanol phases
